According to patent publication US10660877B2 (BRISTOL-MYERS SQUIBB COMPANY, priority 2016, dated 2020):
Read-outs that look alike come from different tables or passages of the source.

How the values were obtained:
human TLR7 = human TLR7 (Homo sapiens (Human), UniProt Q9NYK1); assay: TLR7 inhibition reporter assay (HEK-Blue cells, SEAP reporter, gardiquimod stimulation); format: cell-based
human TLR8 = human TLR8 (Homo sapiens (Human), UniProt Q9NR97); assay: TLR8 inhibition reporter assay (HEK-Blue cells, SEAP reporter, R848 stimulation);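 also: compounds tested from 0.05 nM to 50 µM, 22 h at 37 °C, SEAP measured with HEK-Blue Detection, inhibition relative to agonist plus DMSO versus a known inhibitor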
human TLR8, sequence (Q9NR97 27-1041): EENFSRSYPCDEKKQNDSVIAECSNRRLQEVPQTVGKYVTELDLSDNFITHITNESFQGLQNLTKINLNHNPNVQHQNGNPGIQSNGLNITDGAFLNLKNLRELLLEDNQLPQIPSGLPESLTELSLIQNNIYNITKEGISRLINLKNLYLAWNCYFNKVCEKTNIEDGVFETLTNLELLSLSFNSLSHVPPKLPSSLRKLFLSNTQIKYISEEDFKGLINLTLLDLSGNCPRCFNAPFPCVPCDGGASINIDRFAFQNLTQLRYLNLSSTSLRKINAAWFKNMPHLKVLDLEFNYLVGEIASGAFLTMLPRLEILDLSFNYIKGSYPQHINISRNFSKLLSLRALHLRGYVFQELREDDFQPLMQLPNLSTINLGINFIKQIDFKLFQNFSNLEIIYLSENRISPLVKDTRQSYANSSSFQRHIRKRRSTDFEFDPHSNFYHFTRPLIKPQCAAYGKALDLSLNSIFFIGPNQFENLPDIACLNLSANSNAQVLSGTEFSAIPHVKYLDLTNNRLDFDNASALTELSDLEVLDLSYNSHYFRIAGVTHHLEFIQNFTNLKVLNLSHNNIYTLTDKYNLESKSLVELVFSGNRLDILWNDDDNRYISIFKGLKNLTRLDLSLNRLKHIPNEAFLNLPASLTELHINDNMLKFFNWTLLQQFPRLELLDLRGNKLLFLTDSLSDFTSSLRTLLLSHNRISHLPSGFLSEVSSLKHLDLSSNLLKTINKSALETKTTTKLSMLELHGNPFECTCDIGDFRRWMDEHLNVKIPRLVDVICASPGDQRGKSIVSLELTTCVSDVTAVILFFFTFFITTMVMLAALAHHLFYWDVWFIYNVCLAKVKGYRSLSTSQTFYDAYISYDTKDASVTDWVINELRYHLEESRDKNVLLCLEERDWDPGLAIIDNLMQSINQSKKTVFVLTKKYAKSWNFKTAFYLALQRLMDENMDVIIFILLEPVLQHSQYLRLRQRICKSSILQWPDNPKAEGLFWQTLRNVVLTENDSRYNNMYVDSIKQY

human TLR9 = human TLR9 (Homo sapiens (Human), UniProt Q9NR96); assay: TLR9 inhibition reporter assay (HEK-Blue cells, SEAP reporter, ODN2006 stimulation);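 also: compounds tested over 0.05 nM to 50 µM, 22 h incubation, inhibition taken as SEAP signal drop from agonist plus DMSO wells toward a known inhibitor control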
human TLR9, sequence (Q9NR96 26-1032): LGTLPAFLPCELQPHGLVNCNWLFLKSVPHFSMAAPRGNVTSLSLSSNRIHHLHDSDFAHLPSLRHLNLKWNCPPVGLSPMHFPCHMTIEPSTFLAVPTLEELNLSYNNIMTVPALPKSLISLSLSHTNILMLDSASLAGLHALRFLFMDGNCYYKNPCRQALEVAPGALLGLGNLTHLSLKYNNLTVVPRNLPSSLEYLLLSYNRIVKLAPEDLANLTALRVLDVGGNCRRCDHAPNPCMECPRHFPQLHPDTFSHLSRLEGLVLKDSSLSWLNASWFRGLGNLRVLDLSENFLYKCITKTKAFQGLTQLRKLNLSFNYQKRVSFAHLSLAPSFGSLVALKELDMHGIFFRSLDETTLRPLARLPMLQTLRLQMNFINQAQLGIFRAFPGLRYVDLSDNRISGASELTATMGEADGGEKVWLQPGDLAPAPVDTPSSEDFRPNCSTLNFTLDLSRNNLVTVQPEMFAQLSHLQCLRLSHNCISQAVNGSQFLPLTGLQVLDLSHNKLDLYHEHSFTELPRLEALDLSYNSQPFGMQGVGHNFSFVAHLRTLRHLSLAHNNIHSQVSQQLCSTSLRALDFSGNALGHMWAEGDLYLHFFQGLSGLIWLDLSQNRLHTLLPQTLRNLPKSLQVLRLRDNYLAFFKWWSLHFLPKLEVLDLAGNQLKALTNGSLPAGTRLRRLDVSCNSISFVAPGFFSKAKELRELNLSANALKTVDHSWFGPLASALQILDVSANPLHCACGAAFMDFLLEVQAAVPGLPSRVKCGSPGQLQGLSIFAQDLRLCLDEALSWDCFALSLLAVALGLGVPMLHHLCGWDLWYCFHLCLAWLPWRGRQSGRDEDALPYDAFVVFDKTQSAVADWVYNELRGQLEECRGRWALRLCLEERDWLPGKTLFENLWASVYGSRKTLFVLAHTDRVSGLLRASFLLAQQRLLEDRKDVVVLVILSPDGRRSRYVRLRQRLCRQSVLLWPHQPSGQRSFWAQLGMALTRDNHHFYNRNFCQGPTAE

[1] = HEK-Blue cells overexpressing human TLR7, gardiquimod 7.5 μM
[2] = read-out: TLR8 IC50, HEK-Blue cells overexpressing human TLR8, R848 15.9 μM
[3] = read-out: TLR9 IC50, HEK-Blue cells overexpressing human TLR9, ODN2006 5 nM
[4] = HEK-Blue cells, gardiquimod 7.5 μM
[5] = read-out: TLR8 IC50, HEK-Blue cells, R848 15.9 μM
[6] = read-out: TLR9 IC50, HEK-Blue cells, ODN2006 5 nM
[7] = TLR8 IC50, HEK-Blue cells overexpressing human TLR8, R848 15.9 μM
[8] = TLR9 IC50, HEK-Blue cells overexpressing human TLR9, ODN2006 5 nM

human TLR7, sequence (Q9NYK1 27-1049): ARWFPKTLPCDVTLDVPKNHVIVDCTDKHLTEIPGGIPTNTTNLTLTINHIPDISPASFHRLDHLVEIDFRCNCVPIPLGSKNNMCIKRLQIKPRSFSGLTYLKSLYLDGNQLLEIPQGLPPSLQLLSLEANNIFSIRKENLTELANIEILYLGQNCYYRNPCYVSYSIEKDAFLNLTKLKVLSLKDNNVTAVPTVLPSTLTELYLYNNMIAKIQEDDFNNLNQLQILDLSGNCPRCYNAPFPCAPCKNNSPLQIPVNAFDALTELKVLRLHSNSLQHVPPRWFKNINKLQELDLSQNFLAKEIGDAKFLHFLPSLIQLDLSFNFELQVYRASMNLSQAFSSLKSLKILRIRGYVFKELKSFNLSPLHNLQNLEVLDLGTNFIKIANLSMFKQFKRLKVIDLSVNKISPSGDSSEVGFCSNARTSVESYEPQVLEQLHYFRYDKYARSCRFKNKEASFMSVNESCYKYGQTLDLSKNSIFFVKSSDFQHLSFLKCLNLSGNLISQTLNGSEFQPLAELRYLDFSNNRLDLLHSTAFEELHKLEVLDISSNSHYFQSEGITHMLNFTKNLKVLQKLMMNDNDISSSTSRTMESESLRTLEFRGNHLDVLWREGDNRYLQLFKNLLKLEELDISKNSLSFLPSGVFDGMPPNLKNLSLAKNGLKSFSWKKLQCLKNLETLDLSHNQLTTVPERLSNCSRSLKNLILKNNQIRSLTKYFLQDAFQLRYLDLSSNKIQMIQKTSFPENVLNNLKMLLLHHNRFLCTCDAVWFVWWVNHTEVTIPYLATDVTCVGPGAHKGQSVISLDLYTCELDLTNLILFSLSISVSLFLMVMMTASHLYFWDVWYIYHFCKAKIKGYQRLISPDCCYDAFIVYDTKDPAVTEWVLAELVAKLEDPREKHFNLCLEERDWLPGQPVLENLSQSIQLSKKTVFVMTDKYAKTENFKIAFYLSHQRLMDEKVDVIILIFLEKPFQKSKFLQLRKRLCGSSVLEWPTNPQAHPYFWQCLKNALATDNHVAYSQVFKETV

| Structure (SMILES) | IC50 (human TLR7; [1]) [nM] | IC50 (human TLR8; [2]) [nM] | IC50 (human TLR9; [3]) [nM] | IC50 (human TLR7; [4]) [nM] | IC50 (human TLR8; [5]) [nM] | IC50 (human TLR9; [6]) [nM] | IC50 (human TLR8; [7]) [nM] | IC50 (human TLR9; [8]) [nM] |
| --- | --- | --- | --- | --- | --- | --- | --- | --- |
| CCC(C)NCC(=O)N1CCC(c2ccc3[nH]c(-c4cc(C)nc(C)c4)c(C(C)C)c3c2)CC1 (stereo not drawn) [Example 392, 2-(sec-butylamino)-1-(4-(2-(2,6-dimethylpyridin-4-yl)-3-isopropyl-1H-indol-5-yl)piperidin-1-yl)ethan-1-one] | 3.2 | 10.4 | 253 | – | – | – | – | – |
| CCN(CCO)C(=O)CN1CCC(c2ccc3[nH]c(-c4cc(C)nc(C)c4)c(C(C)C)c3c2)CC1 [Example 294, 2-(4-(2-(2,6-dimethylpyridin-4-yl)-3-isopropyl-1H-indol-5-yl)piperidin-1-yl)-N-ethyl-N-(2-hydroxyethyl)acetamide] | 14.1 | 58.3 | 1880 | – | – | – | – | – |
| CC(C)c1c(-c2cc(C3CC3)ncc2F)[nH]c2ccc(C3CCN(CC(=O)N(C)C)CC3)cc12 [Example 515, 2-(4-(2-(2-cyclopropyl-5-fluoropyridin-4-yl)-3-isopropyl-1H-indol-5-yl)piperidin-1-yl)-N,N-dimethylacetamide] | 19.8 | 136 | 2220 | – | – | – | – | – |
| Cc1cc(-c2[nH]c3ccc(C4CCN(C(CF)CF)CC4)cc3c2C(C)C)ccn1 [Example 865, 5-(1-(1,3-difluoropropan-2-yl)piperidin-4-yl)-3-isopropyl-2-(2-methylpyridin-4-yl)-1H-indole] | – | – | – | 36.7 | 28.3 | 1030 | – | – |
| Cc1cc(-c2[nH]c3ccc(C4CCNCC4)cc3c2C(C)C)c(CO)cn1 [Example 42, (4-(3-isopropyl-5-(piperidin-4-yl)-1H-indol-2-yl)-6-methylpyridin-3-yl)methanol] | 52.7 | 2.5 | 897 | – | – | – | – | – |
| Cc1cc(-c2[nH]c3ccc(C4CCN(C(=O)C(=O)NCCc5ccncc5)CC4)cc3c2C(C)C)cc(C)n1 [Example 860, 2-(4-(2-(2,6-dimethylpyridin-4-yl)-3-isopropyl-1H-indol-5-yl)piperidin-1-yl)-2-oxo-N-(2-(pyridin-4-yl)ethyl)acetamide] | – | – | – | 9.7 | 89.2 | 15700 | – | – |
| Cc1cc(-c2[nH]c3ccc(C4CCN(Cc5ccn[nH]5)CC4)cc3c2C(C)C)cc(C)n1 [Example 441, 5-(1-((1H-pyrazol-5-yl)methyl)piperidin-4-yl)-2-(2,6-dimethylpyridin-4-yl)-3-isopropyl-1H-indole] | 1.6 | 1.7 | 303 | – | – | – | – | – |
| CCc1c(-c2ccnc(NC(C)=O)c2)[nH]c2ccc(C3CCNCC3)cc12 [Example 68, N-(4-(3-ethyl-5-(piperidin-4-yl)-1H-indol-2-yl)pyridin-2-yl)acetamide] | 4190 | 1030 | 1030 | – | – | – | – | – |
| Cc1cc(-c2[nH]c3ccc(C4CCN(Cc5nn[nH]n5)CC4)cc3c2C(C)C)cc(C)n1 [Example 462, 5-(1-((2H-tetrazol-5-yl)methyl)piperidin-4-yl)-2-(2,6-dimethylpyridin-4-yl)-3-isopropyl-1H-indole] | 70.4 | 210 | 5260 | – | – | – | – | – |
| Cc1cc(-c2[nH]c3ccc(C4CCN(Cc5ncco5)CC4)cc3c2C(C)C)cc(C)n1 [Example 449, 2-((4-(2-(2,6-dimethylpyridin-4-yl)-3-isopropyl-1H-indol-5-yl)piperidin-1-yl)methyl)oxazole] | 13.5 | 14.3 | 2930 | – | – | – | – | – |
| CNCCC(=O)N1CCC(c2ccc3[nH]c(-c4cc(C)nc(C)c4)c(C(C)C)c3c2)CC1 [Example 183, 1-(4-(2-(2,6-dimethylpyridin-4-yl)-3-isopropyl-1H-indol-5-yl)piperidin-1-yl)-3-(methylamino)propan-1-one] | 0.9 | – | – | – | – | – | 19.7 | 323 |
| CNCC(=O)N1CCC(c2ccc3[nH]c(-c4cc(C)nc(C5CC5)c4)c(C(C)C)c3c2)CC1 [Example 508, 1-(4-(2-(2-cyclopropyl-6-methylpyridin-4-yl)-3-isopropyl-1H-indol-5-yl)piperidin-1-yl)-2-(methylamino)ethan-1-one] | 8.8 | 57.9 | 592 | – | – | – | – | – |
| CO[C@@H]1C[C@H](CO)N(C(=O)CN2CCC(c3ccc4[nH]c(-c5cc(C)nc(C)c5)c(C(C)C)c4c3)CC2)C1 [Example 292, 2-(4-(2-(2,6-dimethylpyridin-4-yl)-3-isopropyl-1H-indol-5-yl)piperidin-1-yl)-1-((2R,4R)-2-(hydroxymethyl)-4-methoxypyrrolidin-1-yl)ethan-1-one] | 3.1 | 12.3 | 365 | – | – | – | – | – |
| Cc1cc(-c2[nH]c3ccc(C4CCN(Cc5nnc(C6CC6)o5)CC4)cc3c2C(C)C)cc(C)n1 [Example 448, 2-cyclopropyl-5-((4-(2-(2,6-dimethylpyridin-4-yl)-3-isopropyl-1H-indol-5-yl)piperidin-1-yl)methyl)-1,3,4-oxadiazole] | 51.2 | 55.6 | 47400 | – | – | – | – | – |
| Cc1cc(-c2[nH]c3ccc(C4CCN(CC5(CO)COC5)CC4)cc3c2C(C)C)cc(C)n1 [Example 319, (3-((4-(2-(2,6-dimethylpyridin-4-yl)-3-isopropyl-1H-indol-5-yl)piperidin-1-yl)methyl)oxetan-3-yl)methanol] | 2.7 | 4 | 355 | – | – | – | – | – |
| COc1cc(-c2[nH]c3ccc(C4CCN(C5CCN(CC(C)C)CC5)CC4)cc3c2C)ccn1 [Example 781, 5-(1′-isobutyl-[1,4′-bipiperidin]-4-yl)-2-(2-methoxypyridin-4-yl)-3-methyl-1H-indole] | 577 | 316 | 206 | – | – | – | – | – |
| Cc1cc(-c2[nH]c3ccc(C4CCN(CC(=O)N5C[C@H](C)C[C@@H]5CO)CC4)cc3c2C(C)C)cc(C)n1 [Example 290, 2-(4-(2-(2,6-dimethylpyridin-4-yl)-3-isopropyl-1H-indol-5-yl)piperidin-1-yl)-1-((2R,4R)-2-(hydroxymethyl)-4-methylpyrrolidin-1-yl) ethan-1-one] | 12 | 66.8 | 870 | – | – | – | – | – |
| Cc1cc(-c2[nH]c3ccc(C4CCN(C(=O)CN5CCC[C@H]5CO)CC4)cc3c2C(C)C)cc(C)n1 [Example 381, (S)-1-(4-(2-(2,6-dimethylpyridin-4-yl)-3-isopropyl-1H-indol-5-yl)piperidin-1-yl)-2-(2-(hydroxymethyl)pyrrolidin-1-yl)ethan-1-one] | 2.2 | 9.8 | 348 | – | – | – | – | – |
| CC(C)c1c(-c2ccnc(F)c2)[nH]c2ccc(C3CCN(C(=O)CN(C)C)CC3)cc12 [Example 522, 2-(dimethylamino)-1-(4-(2-(2-fluoropyridin-4-yl)-3-isopropyl-1H-indol-5-yl)piperidin-1-yl)ethan-1-one] | 23.6 | 47.9 | 2010 | – | – | – | – | – |
| Cc1cc(-c2[nH]c3ccc(C4CCN(CC(N)=O)CC4)cc3c2C(C)C)c(F)cn1 [Example 652, 2-(4-(2-(5-fluoro-2-methylpyridin-4-yl)-3-isopropyl-1H-indol-5-yl)piperidin-1-yl)acetamide] | 1.5 | 3 | 1290 | – | – | – | – | – |
| Cc1cc(-c2[nH]c3ccc(C4CCN(CC(=O)NCC(C)(C)O)CC4)cc3c2C(C)C)cc(C)n1 [Example 268, 2-(4-(2-(2,6-dimethylpyridin-4-yl)-3-isopropyl-1H-indol-5-yl)piperidin-1-yl)-N-(2-hydroxy-2-methylpropyl)acetamide] | 3 | 7.2 | 416 | – | – | – | – | – |
| Cc1cc(-c2[nH]c3ccc(C4CCN(C(=O)CN(C)Cc5cc(C)on5)CC4)cc3c2C(C)C)cc(C)n1 [Example 417, 1-(4-(2-(2,6-dimethylpyridin-4-yl)-3-isopropyl-1H-indol-5-yl)piperidin-1-yl)-2-(methyl((5-methylisoxazol-3-yl)methyl)amino)ethan-1-one] | 10.3 | 72.3 | 9380 | – | – | – | – | – |
| Cc1cc(-c2[nH]c3ccc(C4CCN(C(=O)CCCN(C)C)CC4)cc3c2C(C)C)cc(C)n1 [Example 111, 4-(dimethylamino)-1-(4-(2-(2,6-dimethylpyridin-4-yl)-3-isopropyl-1H-indol-5-yl)piperidin-1-yl)butan-1-one] | 75.9 | 255 | 12900 | – | – | – | – | – |
| Cc1cc(-c2[nH]c3ccc(C4CCN(CC(=O)N5CCCC5C)CC4)cc3c2C(C)C)cc(C)n1 (stereo not drawn) [Example 259, 2-(4-(2-(2,6-dimethylpyridin-4-yl)-3-isopropyl-1H-indol-5-yl)piperidin-1-yl)-1-(2-methylpyrrolidin-1-yl)ethan-1-one] | 4.5 | – | – | – | – | – | 12.2 | 483 |
| CNC(=O)C(=O)N1CCC(c2ccc3[nH]c(-c4cc(C)nc(C)c4)c(C(C)C)c3c2)CC1 [Example 204, 2-(4-(2-(2,6-dimethylpyridin-4-yl)-3-isopropyl-1H-indol-5-yl)piperidin-1-yl)-N-methyl-2-oxoacetamide] | 5.7 | 62.9 | 17200 | – | – | – | – | – |
| Cc1cc(-c2[nH]c3ccc(C4CCN(CC5COC5)CC4)cc3c2C(C)C)c(F)cn1 [Example 646, 2-(5-fluoro-2-methylpyridin-4-yl)-3-isopropyl-5-(1-(oxetan-3-ylmethyl)piperidin-4-yl)-1H-indole] | 12 | 4.8 | 5850 | – | – | – | – | – |
| CNCC(=O)N1CCC(c2ccc3[nH]c(-c4cc(C)ncc4C)c(C(C)C)c3c2)CC1 [Example 620, 1-(4-(2-(2,5-dimethylpyridin-4-yl)-3-isopropyl-1H-indol-5-yl)piperidin-1-yl)-2-(methylamino)ethan-1-one] | 8.1 | – | – | – | – | – | 3.5 | 3570 |
